Reference: patent publication US7276371B2, “Stimulation of hematopoietic cells in vitro” (Point Therapeutics, Inc., priority 1997, dated 2007)

Columns and labels:
bone marrow cells = assay: Bone marrow cell growth stimulation, 4 day culture without added cytokines, cell count; type: cell-based; conditions: 10,000 bone marrow cells per well at start, IMDM, no growth factors, control 10,000 cells
Procedure: Freshly isolated bone marrow cells were isolated and 10,000 cells per well were incubated in 96 microtiter plates in CellGro Iscove's Modified Dulbecco's Medium (IMDM) and with or without (control) the indicated concentrations of Pro-boroPro for 4 days. At the end of this incubation period, the cells were counted under the microscope. The cultures without Pro-boroPro contained 10,000 cells at the end of 4 days. The cultures containing Pro-boroPro had 53,000 cells at 10^−6M, 38,000 cells at 10^−8M and 42,000 cells at 10^−10 M. The cultures containing a growth factor mix (GF) contained 82,000 cells. Growth factors were supplied in OPITEN® Giant Cell Tumor-conditioned medium (IGEN)
Cultures were set up as described in the legend to FIG. 1 except that Lys-boroPro and the homoconjugate were used, and incubated for 4 days.
• 1. Obtain bone marrow or umbilical cord blood in heparinized (green top) tube. Can be stored at room temperature until use within 48 hours. • 2. Mix marrow/blood 1:1 with phosphate-buffered saline, pH 7.4(PBS) that has been stored at 4° C. • 3. Carefully layer blood-PBS mixture on a 2× volume quantity of Histopaque (Sigma) that has been stored at 4° C. • 4. Centrifuge at 400 g×20 minutes at 37° C. • 5. Carefully collect cells at interface and wash ×2 in cold PBS. • 6. Count viable cells using trypan blue. • 7. Set up cells as 1 ml cultures in plastic culture tubes (or 96 well or 24 well microtiter plates) at 10^4 cells/ml in CellGro Iscove's Modified Dulbecco's medium (Meditech) containing kanamycin (5 ug/ml), desired concentration of Xaa-boroPro or other compound of the invention, and the absence or presence of Giant Cell Tumor-Conditioned Medium (GCT-CM, Origen) as source of growth factors. Xaa-boroPro or other compounds of the invention should be diluted to medium and added to culture only after cells are in culture tube. • 8. Cells are cultured at 37° C. in a moist air incubator containing 5% CO2. • 9. At desired time, an aliquot of cells are removed and counted. • 10. […]

Isolated CD34+ cells = Isolated CD34+ cells (98% purity) of bone marrow, 4 day culture: growth stimulation and percent CD34+ remaining; type: cell-based, human
Procedure: (§1) • 1. Obtain bone marrow or umbilical cord blood in heparinized (green top) tube. Can be stored at room temperature until use within 48 hours. • 2. Mix marrow/blood 1:1 with phosphate-buffered saline, pH 7.4(PBS) that has been stored at 4° C. • 3. Carefully layer blood-PBS mixture on a 2× volume quantity of Histopaque (Sigma) that has been stored at 4° C. • 4. Centrifuge at 400 g×20 minutes at 37° C. • 5. Carefully collect cells at interface and wash ×2 in cold PBS. • 6. Count viable cells using trypan blue. • 7. Set up cells as 1 ml cultures in plastic culture tubes (or 96 well or 24 well microtiter plates) at 10^4 cells/ml in CellGro Iscove's Modified Dulbecco's medium (Meditech) containing kanamycin (5 ug/ml), desired concentration of Xaa-boroPro or other compound of the invention, and the absence or presence of Giant Cell Tumor-Conditioned Medium (GCT-CM, Origen) as source of growth factors. Xaa-boroPro or other compounds of the invention should be diluted to medium and added to culture only after cells are in culture tube. • 8. Cells are cultured at 37° C. in a moist air incubator containing 5% CO2. • 9. At desired time, an aliquot of cells are removed and counted. • 10. Counting can be performed under the microscope (direct) or by using the MTT assay (colorimetric assay).

[1] = test system: Umbilical cord blood cells; assay: Bulk umbilical cord blood, total cell counts after 4 day incubation; type: cell-based; conditions: control culture 0.2×10^6 cells
Procedure: (§2) Umbilical cord blood cells were incubated under essentially the same conditions as described in the legend to FIG. 1, except that Val-boroPro was used as stimulant at the indicated concentrations. After 4 day incubation: • A: Bulk Umbilical Cord Blood; Total Cell Counts. Control culture: 0.2×10^6 cells; Growth factors 5×10^6 cells; Val-boroPro: 3×10^6 (10^−6M); 3×10^6 (10^−8M); 4×10^6 ([…]). • B: CD34+ isolated cells: CD34+ cells were isolated using CD34 mAb coupled beads for positive selection. Cell preparation contained 98% CD34+ cells. After 4 days of incubation the culture containing 10^−10M Val-boroPro contained 8.5×10^6 cells, compared to 0.6×10^6 cells in the control and 4×10^6 cells in the incubation with growth factors.
as §1

CD34+ isolated cells = assay: CD34+ cells isolated from umbilical cord blood, 4 day culture: cell number and percent CD34+ remaining; type: cell-based, human; conditions: 10^−10M; isolated CD34+ cells (98% CD34+); control 0.6×10^6 cells
Procedure: as §2
C: Percent of CD34+ cells remaining after 4 day culture: Cultures incubated with Val-boroPro contained between 10 and 15% of CD34+ cells after 4 day culture. Cultures incubated with Growth Factors had only 4% of CD34+ cells remaining (panel b).
• 1. Obtain bone marrow or umbilical cord blood in heparinized (green top) tube. Can be stored at room temperature until use within 48 hours. • 2. […] Carefully layer blood-PBS mixture on a 2× volume quantity of Histopaque (Sigma) that has been stored at 4° C. • 4. […] At desired time, an aliquot of cells are removed and counted. • 10. […]

Question: Which “number of cells at the end of 4 days” value (bone marrow cells; 10^−6M) does the source give for O=C(C1CCCN1)N1CCCC1B(O)O (stereo not drawn) [Pro-boroPro] here?
Answer: 53,000 cells

Question: What about the “number of cells at the end of 4 days” value (bone marrow cells; 10^−8M) of the same molecule?
Answer: 38,000 cells

Question: And the “number of cells at the end of 4 days” value (bone marrow cells; 10^−10 M)?
Answer: 42,000 cells

Question: For CC(C)[C@H](N)C(=O)N1CCC[C@H]1B(O)O [Val-boroPro], which “increase in stimulation of cellular growth over that in control cultures” value (Isolated CD34+ cells; 4 day culture, concentration not given) is on record?
Answer: up to 20 fold

Question: What about the “Percent of CD34+ cells remaining in culture after a 4 day incubation period” value (Isolated CD34+ cells; isolated bone marrow CD34+ cells, control 63%) of the same molecule?
Answer: 43%

Question: And the “Total Cell Counts after 4 day incubation” value ([1]; 10^−6M)?
Answer: 3×10^6

Question: And the “Total Cell Counts after 4 day incubation” value ([1]; 10^−8M)?
Answer: 3×10^6

Question: And the “Total Cell Counts after 4 day incubation” value ([1]; 10^−M (so in the source))?
Answer: 4×10^6

Question: What about the “number of cells after 4 days of incubation” value (CD34+ isolated cells) of the same molecule?
Answer: 8.5×10^6 cells
